Experimental data: patent US12186303B2, “Feed additive for cattle comprising n-acetyl-l-tryptophan as active ingredient” (CJ CHEILJEDANG CORPORATION, priority 2018, dated 2025)

Test system: Korean native steers
Assay: Body weight, average daily gain and feed conversion ratio according to NALT feeding under cold stress conditions
Assay type: in vivo, Korean native cattle
Method: In the present disclosure, 8 Korean native steers (8.3±0.72 months old on average) were selected and used. […] Analysis of chemical composition (moisture, crude protein, crude fat, crude ash, etc.) and amino acids (19 types) of the basal diet stored at −20° C. was performed, and the results are shown in Table 3. After grouping the animals by statistical analysis of initial body weights, the animals were bred in 1.0×1.5 m^2 individual pens during the experiment period. The feed was offered based on an amount of dry matter of daily total mixed ration (TMR) per head. After 7 days of an adaptation period for N-acetyl-L-tryptophan (NALT), a mixture of 0.1% N-acetyl-L-tryptophan (NALT) and the total mixed ration was fed to individual animals every morning at 8 a.m. for 6 weeks, and water was available ad libitum. Total amounts of L-tryptophan ingested by the control and NALT-treated group by feeding NALT were 7.37 g/day/head and 16.26 g/day/head, respectively. The experiment was performed such that the NALT-treated group ingested 8.89 g/day/head more L-tryptophan than that of the control. Meanwhile, results of growth performance analysis (body weight and average feed intake) and genetic analysis of loin tissue were obtained by statistically comparing and analyzing significant differences between the control and the NALT-treated group, and results of hematological analysis were obtained via statistical comparison and analysis depending on NALT treatment, experiment period (days), and interaction (treatment×days). These numerical values were expressed as average values, and a significance test was performed at the 5% level using Student's t-test by using the JMP 5.0 software package (SAS Institute Inc., Cary, NC, USA). An average temperature during the adaptation period (days 0-6) was 4.3° C., and average temperatures during the experiment period were in the range of −6.2° C. to 4.2° C., relatively low compared to that of the adaptation period. In addition, an average temperature of the entire experiment period (days 7-48) was −1.0° C. Initial weight (day 0), intermediate weight (day 27), and end weight (day 48) of sentinel animals were measured, i.e., three times in total, before offering morning feed. The average daily gain (average daily weight gain, ADG) of the sentinel animals was calculated by dividing the differences in weight, between the initial weight and the intermediate weight and between the intermediate weight and the end weight, by the total number of days of the experiment.

Question: Which “Decrease of feed conversion ratio compared to the control” value (0.1% NALT in TMR) does the source give for `CC(=O)N[C@@H](Cc1c[nH]c2ccccc12)C(=O)O` [NALT, N-acetyl-L-tryptophan] here?
Answer: The value was 63%.

Question: What about the “Feed conversion ratio of the NALT-treated group relative to the control” value (0.1% NALT in TMR) of the same compound?
Answer: The value was 37%.

Question: And the Body weight (0.1% NALT in TMR, Day 0 (initial weight))?
Answer: The Body weight was 279.7 kg.

Question: What about the Body weight (0.1% NALT in TMR, Day 27) of the same compound?
Answer: Its Body weight is 301.5 kg.

Question: And the Feed conversion ratio (0.1% NALT in TMR, Day 27)?
Answer: The Feed conversion ratio was 13.3.

Question: What about the “ADG (average daily gain)” value (0.1% NALT in TMR, Day 27 (day 0 to day 27)) of the same compound?
Answer: The value was 0.753 kg/day.

Question: And the Body weight (0.1% NALT in TMR, Day 48)?
Answer: The Body weight was 315.7 kg.

Question: And the Feed conversion ratio (0.1% NALT in TMR, Day 48)?
Answer: Its Feed conversion ratio is 4.82.

Question: What about the “ADG (average daily gain)” value (0.1% NALT in TMR, Day 48 (day 27 to day 48)) of the same compound?
Answer: The value was 0.766 kg/day.

Question: What about the “Total weight change compared with the control” value (day 27 and day 48) of the same compound?
Answer: The value was “no statistically significant difference”.
